The values that follow come from paper PMC7170901, “Design and efficient synthesis of pyrazoline and isoxazole bridged indole C-glycoside hybrids as potential anticancer agents” (Scientific Reports, 2020).

The test system of the experiment is MDA-MB-231 (human breast cancer) cell line. As to the kind of experiment: MTT cell viability assay in MDA-MB-231 cells. In kind it is cell-based. Conditions: Homo sapiens, MDA-MB-231, 72 h, 72 h, MTT, read-out: Cell Viability (%) ± SD; for viability at 10 µM: MDA-MB-231, 10 µM; for viability at 25 µM: MDA-MB-231, 25 µM; for viability at 50 µM: MDA-MB-231, 50 µM. As for the experimental part: IC50 values were determined by plotting values of percent cell viability against concentration of each of these compounds. […] The experiments were performed in triplicates, n = 3 and ± SE value was calculated for each data point.
The human breast cancer cell line MDA-MB-231 were cultured in Dulbecco’s Modified Eagle’s Medium (DMEM) (Gibco, St. Louis, USA) supplemented with 10% heat inactivated FBS (Fetal Bovine Serum, Gibco, USA) and 1% penicillin-streptomycin (Gibco Canada) in humidified CO2 incubator at 37 °C. The cells were maintained as a monolayer in 100 mm culture plate. The cells used for each experiment were of less than 8 passage number. Sub culturing of cells was performed every third day, followed by trypsin EDTA treatment.
Cell viability assay was performed as per standard protocols. […] Ltd, India). In brief, this is a homogeneous, colorimetric method for determining the number of viable cells in proliferation, cytotoxicity or chemosensitivity assays. MTT is bio reduced by cells into a formazan product that is soluble in the tissue culture medium. […] The absorbance of the formazan product at 595 nm was measured directly from 96-well assay plates without additional processing using a multimode plate reader (Bio-Rad) (iMark, India), as absorbance is directly proportional to the number of viable cells in culture. The percentage of viable cells in each group is determined with respect to the untreated control cells.

For the compound `O=[N+]([O-])c1ccc2[nH]cc(C3CC(C[C@@H]4O[C@H](CO)[C@@H](O)[C@H](O)[C@H]4O)=NN3)c2c1` (stereo partly drawn) [Compound 22, (2R,3S,4R,5R,6S)-2-(hydroxymethyl)-6-((5-(5-nitro-1H-indol-3-yl)-4,5-dihydro-1H-pyrazol-3-yl)methyl)tetrahydro-2H-pyran-3,4,5-triol], the viability at 10 µM stood at 70.4 ± 13%, the viability at 25 µM came to 68.6 ± 11.1% and the viability at 50 µM is 70.3 ± 6.17%.

Consider `OC[C@H]1O[C@@H](CC2=NNC(c3c[nH]c4ccc(Br)cc34)C2)[C@H](O)[C@@H](O)[C@@H]1O` (stereo partly drawn) [Compound 23, (2 S,3 R,4 R,5 S,6 R)-2-((5-(5-bromo-1H-indol-3-yl)-4,5-dihydro-1H-pyrazol-3-yl)methyl)-6-(hydroxymethyl)tetrahydro-2H-pyran-3,4,5-triol], for which the viability at 10 µM amounted to 105 ± 11.3%, the viability at 25 µM was 88.8 ± 2.22% and the viability at 50 µM is 81.5 ± 5.45%.

In the case of `OC[C@H]1O[C@@H](CC2=NNC(c3c[nH]c4ccc(Cl)cc34)C2)[C@H](O)[C@@H](O)[C@@H]1O` (stereo partly drawn) [Compound 24, (2 S,3 R,4 R,5 S,6 R)-2-((5-(5-chloro-1H-indol-3-yl)-4,5-dihydro-1H-pyrazol-3-yl)methyl)-6-(hydroxymethyl)tetrahydro-2H-pyran-3,4,5-triol], the viability at 10 µM stood at 82.2 ± 3.5%, the viability at 25 µM is 77.5 ± 8.96% and the viability at 50 µM was determined as 77.7 ± 2.56%.

As to `O=[N+]([O-])c1ccc2[nH]cc(C3CC(C[C@@H]4O[C@H](CO)[C@H](O)[C@H](O)[C@H]4O)=NN3)c2c1` (stereo partly drawn) [Compound 26, (2 S,3 R,4 R,5 R,6 R)-2-((5-(5-nitro-1H-indol-3-yl)-4,5-dihydro-1H-pyrazol-3-yl)methyl)-6-(hydroxymethyl)tetrahydro-2H-pyran-3,4,5-triol], the viability at 10 µM was found to be 101 ± 9.67%, the viability at 25 µM came to 98.25 ± 0.34% and the viability at 50 µM is 99.5 ± 1.88%.

As for `OC[C@H]1O[C@@H](CC2=NNC(c3c[nH]c4ccc(Br)cc34)C2)[C@H](O)[C@@H](O)[C@H]1O` (stereo partly drawn) [Compound 27, (2 S,3 R,4 R,5 R,6 R)-2-((5-(5-bromo-1H-indol-3-yl)-4,5-dihydro-1H-pyrazol-3-yl)methyl)-6-(hydroxymethyl)tetrahydro-2H-pyran-3,4,5-triol], the viability at 10 µM is 90 ± 7.7%, the viability at 25 µM is 90.8 ± 7.09% and the viability at 50 µM came to 97.7 ± 10.1%.

In the case of `OC[C@H]1O[C@@H](CC2=NNC(c3c[nH]c4ccc(Cl)cc34)C2)[C@H](O)[C@@H](O)[C@H]1O` (stereo partly drawn) [Compound 28, (2 S,3 R,4 R,5 R,6 R)-2-((5-(5-chloro-1H-indol-3-yl)-4,5-dihydro-1H-pyrazol-3-yl)methyl)-6-(hydroxymethyl)tetrahydro-2H-pyran-3,4,5-triol], the viability at 10 µM worked out at 99.5 ± 10.2%, the viability at 25 µM turned out to be 95.2 ± 13.6% and the viability at 50 µM turned out to be 63.4 ± 17.5%.

As for `OC[C@H]1O[C@@H](CC2=NNC(c3c[nH]c4ccccc34)C2)[C@@H](O)[C@@H](O)[C@@H]1O` (stereo partly drawn) [Compound 29, (2 S,3 S,4 R,5 S,6 R)-2-((5-(1H-indol-3-yl)-4,5-dihydro-1H-pyrazol-3-yl)methyl)-6-(hydroxy-methyl)tetrahydro-2H-pyran-3,4,5-triol], the viability at 10 µM was found to be 82.2 ± 7.65%, the viability at 25 µM was 76.6 ± 6.58% and the viability at 50 µM was found to be 73.5 ± 8.45%.

`O=[N+]([O-])c1ccc2[nH]cc(C3CC(C[C@@H]4O[C@H](CO)[C@@H](O)[C@H](O)[C@@H]4O)=NN3)c2c1` (stereo partly drawn) [Compound 30, (2 S,3 S,4 R,5 S,6 R)-2-((5-(5-nitro-1H-indol-3-yl)-4,5-dihydro-1H-pyrazol-3-yl)methyl)-6-(hydroxymethyl)tetrahydro-2H-pyran-3,4,5-triol]: the viability at 10 µM was 93.8 ± 5.85%, the viability at 25 µM is 92.1 ± 8% and the viability at 50 µM turned out to be 88 ± 1.1%.

Consider `OC[C@H]1O[C@@H](CC2=NNC(c3c[nH]c4ccc(Br)cc34)C2)[C@@H](O)[C@@H](O)[C@@H]1O` (stereo partly drawn) [Compound 31, (2 S,3 S,4 R,5 S,6 R)-2-((5-(5-bromo-1H-indol-3-yl)-4,5-dihydro-1H-pyrazol-3-yl)methyl)-6-(hydroxymethyl)tetrahydro-2H-pyran-3,4,5-triol], for which the viability at 10 µM stood at 91.4 ± 3.62%, the viability at 25 µM came out at 90.1 ± 6.77% and the viability at 50 µM stood at 87.6 ± 6.27%.

For `OC[C@H]1O[C@@H](CC2=NNC(c3c[nH]c4ccc(Cl)cc34)C2)[C@@H](O)[C@@H](O)[C@@H]1O` (stereo partly drawn) [Compound 32, (2 S,3 S,4 R,5 S,6 R)-2-((5-(5-chloro-1H-indol-3-yl)-4,5-dihydro-1H-pyrazol-3-yl)methyl)-6-(hydroxymethyl)tetrahydro-2H-pyran-3,4,5-triol], the viability at 10 µM was 74.6 ± 4.7%, the viability at 25 µM amounted to 78.5 ± 4.44% and the viability at 50 µM was found to be 66.5 ± 7.27%.

Turning to `OC[C@H]1O[C@@H](Cc2cc(-c3c[nH]c4ccccc34)on2)[C@H](O)[C@@H](O)[C@@H]1O` [Compound 33, (2 S,3 R,4 R,5 S,6 R)-2-((5-(1H-indol-3-yl)isoxazol-3-yl)methyl)-6-(hydroxymethyl) tetrahydro-2H-pyran-3,4,5-triol], the viability at 10 µM was 104 ± 12.7%, the viability at 25 µM stood at 106 ± 7.4% and the viability at 50 µM came to 92.6 ± 15.2%.

For `OC[C@H]1O[C@@H](Cc2cc(-c3c[nH]c4ccc(Br)cc34)on2)[C@H](O)[C@@H](O)[C@@H]1O` [Compound 35, (2 S,3 R,4 R,5 S,6 R)-2-((5-(5-bromo-1H-indol-3-yl)isoxazol-3-yl)methyl)-6-(hydroxy-methyl)tetrahydro-2H-pyran-3,4,5-triol], the viability at 10 µM was determined as 95.5 ± 4.91%, the viability at 25 µM stood at 95.3 ± 3.6% and the viability at 50 µM is 93.9 ± 9.08%.

For `OC[C@H]1O[C@@H](Cc2cc(-c3c[nH]c4ccc(Cl)cc34)on2)[C@H](O)[C@@H](O)[C@@H]1O` [Compound 36, (2 S,3 R,4 R,5 S,6 R)-2-((5-(5-chloro-1H-indol-3-yl)isoxazol-3-yl)methyl)-6-(hydroxymethyl) tetrahydro-2H-pyran-3,4,5-triol], the viability at 10 µM is 97.8 ± 11.6%, the viability at 25 µM is 96.8 ± 11.6% and the viability at 50 µM is 99.3 ± 4.28%.

Take `O=[N+]([O-])c1ccc2[nH]cc(-c3cc(C[C@@H]4O[C@H](CO)[C@H](O)[C@H](O)[C@H]4O)no3)c2c1` [Compound 38, (2 R,3 R,4 R,5 R,6 S)-2-(hydroxymethyl)-6-((5-(5-nitro-1H-indol-3-yl)isoxazol-3-yl)methyl) tetrahydro-2H-pyran-3,4,5-triol]: the viability at 10 µM came to 99.1 ± 5.63%, the viability at 25 µM came to 94.5 ± 3.67% and the viability at 50 µM is 94.9 ± 4.49%.

With `OC[C@H]1O[C@@H](Cc2cc(-c3c[nH]c4ccc(Br)cc34)on2)[C@H](O)[C@@H](O)[C@H]1O` [Compound 39, (2 S,3 R,4 R,5 R,6 R)-2-((5-(5-bromo-1H-indol-3-yl)isoxazol-3-yl)methyl)-6-(hydroxymethyl) tetrahydro-2H-pyran-3,4,5-triol], the viability at 10 µM was 120 ± 17.6%, the viability at 25 µM came out at 89.4 ± 5.32% and the viability at 50 µM is 90.3 ± 2.88%.

On to `OC[C@H]1O[C@@H](Cc2cc(-c3c[nH]c4ccc(Cl)cc34)on2)[C@H](O)[C@@H](O)[C@H]1O` [Compound 40, (2 S,3 R,4 R,5 R,6 R)-2-((5-(5-chloro-1H-indol-3-yl)isoxazol-3-yl)methyl)-6-(hydroxymethyl) tetrahydro-2H-pyran-3,4,5-triol], for which the viability at 10 µM came out at 93.7 ± 2.68%, the viability at 25 µM is 96 ± 1.81% and the viability at 50 µM was determined as 87.9 ± 4.71%.

`OC[C@H]1O[C@@H](Cc2cc(-c3c[nH]c4ccccc34)on2)[C@@H](O)[C@@H](O)[C@@H]1O` [Compound 41, (2 S,3 S,4 R,5 S,6 R)-2-((5-(1H-indol-3-yl)isoxazol-3-yl)methyl)-6-(hydroxymethyl) tetrahydro-2H-pyran-3,4,5-triol]: the viability at 10 µM came to 89.2 ± 3.7%, the viability at 25 µM is 81.2 ± 5.17% and the viability at 50 µM amounted to 74 ± 17.6%.

As to `O=[N+]([O-])c1ccc2[nH]cc(-c3cc(C[C@@H]4O[C@H](CO)[C@@H](O)[C@H](O)[C@@H]4O)no3)c2c1` [Compound 42, (2 R,3 S,4 R,5 S,6 S)-2-(hydroxymethyl)-6-((5-(5-nitro-1H-indol-3-yl)isoxazol-3-yl)methyl) tetrahydro-2H-pyran-3,4,5-triol], the viability at 10 µM turned out to be 92.6 ± 11.5%, the viability at 25 µM was found to be 93.4 ± 15.7% and the viability at 50 µM was 95.2 ± 13.6%.

Take `OC[C@H]1O[C@@H](Cc2cc(-c3c[nH]c4ccc(Br)cc34)on2)[C@@H](O)[C@@H](O)[C@@H]1O` [Compound 43, (2 S,3 S,4 R,5 S,6 R)-2-((5-(5-bromo-1H-indol-3-yl)isoxazol-3-yl)methyl)-6-(hydroxymethyl) tetrahydro-2H-pyran-3,4,5-triol]: the viability at 10 µM is 96.6 ± 3.98%, the viability at 25 µM is 85.2 ± 2.93% and the viability at 50 µM was determined as 95.7 ± 3.26%.
